Measured values reported in publication PMC6155683, “Pharmacokinetics Studies of 12 Alkaloids in Rat Plasma after Oral Administration of Zuojin and Fan-Zuojin Formulas” (Molecules : A Journal of Synthetic Chemistry and Natural …, 2017).
Read-outs that look alike come from different tables or passages of the source.

How the values were obtained:
[1] = PK study of the 12 alkaloids in rat plasma after oral administration of ZJ and FZJ extract (LC–MS/MS); assay type: in vivo; settings: rat plasma; for AUC(0-t) / AUC(0-inf) / Cmax / MRT last / MRT inf / half-life / Csec (drug concentration of the secondary peak in C–T curve): mean ± SD, n = 6; for AUC(0-t): read-out: AUC0→t; for AUC(0-inf): read-out: AUC0→∞; for Cmax: read-out: Cmax; for MRT last: read-out: MRT0→t (converted); for MRT inf: read-out: MRT0→∞ (converted); for half-life: read-out: t1/2; for Tmax: read-out: Tmax (converted)
Method: The time schedule included 15 time-points and six rats were sampled at each time-point. All the rats were orally administered with ZJ extract (suspended in water) at a dose of 3.38 g/kg body weight (dosages of the 12 alkaloids were shown in Table S4), equivalent to crude drug dose of 12 g/kg body weight. Blood samples were collected from the suborbital vein of the rats at 10, 20, 30, 60, 90, 120, 180, 240, 300, 330, 360, 480, 720, 1440, 2160 min after administration, and centrifuged immediately at 5000 rpm for 10 min. The plasma samples were stored at −20 °C until analysis.
Similarly, the time schedule of other rats included 15 time-points and six rats were orally administered with FZJ extract at a dose of 3.76 g/kg body weight (also equivalent to crude drug dose of 12 g/kg body weight, Table S4). Blood samples were collected and treated as mentioned above in the PK study of ZJ extract.
PK parameters of the 12 alkaloids including AUC0→t, AUC0→∞, mean retention time (MRT0→t, MRT0→∞), and elimination half-life (t1/2) were calculated with non-compartmental method by DAS 2.0 software (Mathematical Pharmacology Professional Committee of China, Shanghai, China). Maximum plasma drug concentration (Cmax) and time to reach the maximum plasma drug concentration (Tmax) were observed directly from the detected C–T data. The results were expressed as arithmetic mean ± standard deviation (SD).

[2] = Two-compartment model fitting of C–T curves (DAS 2.0); assay type: in vivo, rat
From the text: Double peaks in C–T curves were observed repeatedly in the PK study of ZJ and related TCM prescriptions, but explanations to the phenomenon were still ambiguous. Generally, possible reasons for the double peak phenomenon could be summarized as follows: (a) enterohepatic circulation; […] (c) irregular pattern of gastric emptying. […] Moreover, Tmax of the alkaloids after administration of ZJ extract were deferred from that of FZJ administration. […] It probably play a major role in the double peak phenomenon, since the GI motility can affect the drug absorption.

[3] = Dose modified systemic exposure (AUC0→∞/D, Cmax/D)
Method: Because the alkaloids content in ZJ and FZJ were no longer linear with the proportion of CR and EF after extraction process, AUC0→∞/D (ratio of AUC0→∞ and dose) and Cmax/D (ratio of Cmax and dose) were calculated to estimate the dose modified systemic exposure levels of the 12 alkaloids (Table 3). […] Physicochemical properties of these alkaloids had been calculated in silico to predict their human colon adenocarcinoma cell (Caco-2) permeability according to the three-property based rule (3PRule). Polar surface area (PSA), logarithm of the n-octanol/water distribution coefficient (LogD), molecular weight (MW), hydrogen bond donors (HBD), hydrogen bond acceptors (HBA), number of free rotatable bonds (NRB) and molar solubility (S) of the alkaloids were retrieved from SciFinder® (American Chemical Society).

[4] = Stability of analytes in rat plasma under storage conditions; assay type: physicochemical; settings: n = 6; for Stability RE, 3 freeze-thaw cycles / Stability RE, 30 days at −20 °C: rat plasma; for Stability RE, processed samples' stability: room temperature 24 h
Method: The stabilities of analytes in plasma were assessed by analyzing the QC samples at three concentration levels under the following storage conditions: after three freeze (−20 °C)-thaw (room temperature) cycles; stored at −20 °C for 30 days, and comparing the results with those of freshly prepared QC samples. Stabilities of the processed samples at room temperature for 24 h were also assessed.

Row | SMILES | AUC(0-t) ([1]; 3.38 g/kg, oral ZJ extract) [ng·h/mL] | AUC(0-inf) ([1]; 3.38 g/kg, oral ZJ extract) [ng·h/mL] | Cmax ([1]; 3.38 g/kg, oral ZJ extract) [ng/mL] | MRT last ([1]; 3.38 g/kg, oral ZJ extract) [h] | MRT inf ([1]; 3.38 g/kg, oral ZJ extract) [h] | half-life ([1]; 3.38 g/kg, oral ZJ extract) [h] | Tmax ([1]; 3.38 g/kg, oral ZJ extract) [h] | AUC(0-t) ([1]; 3.76 g/kg, oral FZJ extract) [ng·h/mL] | AUC(0-inf) ([1]; 3.76 g/kg, oral FZJ extract) [ng·h/mL] | Cmax ([1]; 3.76 g/kg, oral FZJ extract) [ng/mL] | MRT last ([1]; 3.76 g/kg, oral FZJ extract) [h] | MRT inf ([1]; 3.76 g/kg, oral FZJ extract) [h] | half-life ([1]; 3.76 g/kg, oral FZJ extract) [h] | Tmax ([1]; 3.76 g/kg, oral FZJ extract) [h] | Tsec (time of the secondary peak in C–T curve) ([1]; oral ZJ extract) [min] | Csec (drug concentration of the secondary peak in C–T curve) ([1]; oral ZJ extract) [ng/mL] | AIC (Akaike's information criterion method), two-compartment model fitting ([2]; oral FZJ extract) | r^2 (correlation coefficient method), two-compartment model fitting ([2]; oral FZJ extract) | AIC (Akaike's information criterion method), two-compartment model fitting ([2]; oral ZJ extract) | r^2 (correlation coefficient method), two-compartment model fitting ([2]; oral ZJ extract) | further results
1 | CCCCC=CCCCCCCCc1cc(=O)c2ccccc2n1C [evocarpine] | 55.6 ± 12.4 | 59 ± 13.3 | 24.2 ± 12.9 | 4.19 | 6.52 | 8.99 ± 6.39 | 1 | 17.8 ± 3.99 | 19.6 ± 4.79 | 4.07 ± 0.44 | 7.04 | 9.3 | 6.91 ± 1 | 0.5 | 240 | 7.36 ± 4.89 | 27.61 ± 10.527 | 0.740 ± 0.167 | 78.232 ± 11.393 | 0.734 ± 0.201 | AUC0→∞/D (ratio of AUC0→∞ and dose) ([3]; oral FZJ extract): 13.16; Cmax/D (ratio of Cmax and dose) ([3]; oral FZJ extract): 2.74; AUC0→∞/D (ratio of AUC0→∞ and dose) ([3]; oral ZJ extract): 35.17; Cmax/D (ratio of Cmax and dose) ([3]; oral ZJ extract): 14.42; Stability RE, 3 freeze-thaw cycles ([4]; high QC concentration): 7.91%; Stability RE, 30 days at −20 °C ([4]; high QC concentration): 6.12%; Stability RE, 3 freeze-thaw cycles ([4]; low QC concentration): −19.16%; Stability RE, 30 days at −20 °C ([4]; low QC concentration): 8.28%; Stability RE, 3 freeze-thaw cycles ([4]; medium QC concentration): 3.44%; Stability RE, 30 days at −20 °C ([4]; medium QC concentration): −14.67%; Stability RE, processed samples' stability ([4]; high QC concentration): 3.83%; Stability RE, processed samples' stability ([4]; low QC concentration): 14.05%; Stability RE, processed samples' stability ([4]; medium QC concentration): −14.47%
2 | O=C1NCCc2cc3c(cc21)OCO3 [noroxyhydrastinine] | 133 ± 18.5 | 140 ± 17.8 | 29.6 ± 15.2 | 8.82 | 11 | 10.7 ± 2.82 | 1.5 | 4.95 ± 0.65 | 5.37 ± 0.73 | 3.17 ± 1 | 3.03 | 5.25 | 4.06 ± 2.93 | 0.5 | 300 | 16.29 ± 8.38 | 16.505 ± 12.486 | 0.802 ± 0.128 | 118.137 ± 17.623 | 0.313 ± 0.350 | AUC0→∞/D (ratio of AUC0→∞ and dose) ([3]; oral FZJ extract): 268.50; Cmax/D (ratio of Cmax and dose) ([3]; oral FZJ extract): 158.50; AUC0→∞/D (ratio of AUC0→∞ and dose) ([3]; oral ZJ extract): 1687.47; Cmax/D (ratio of Cmax and dose) ([3]; oral ZJ extract): 357.11; Stability RE, 3 freeze-thaw cycles ([4]; high QC concentration): −9.82%; Stability RE, 30 days at −20 °C ([4]; high QC concentration): −12.1%; Stability RE, 3 freeze-thaw cycles ([4]; low QC concentration): −14.7%; Stability RE, 30 days at −20 °C ([4]; low QC concentration): −8.89%; Stability RE, 3 freeze-thaw cycles ([4]; medium QC concentration): 11.57%; Stability RE, 30 days at −20 °C ([4]; medium QC concentration): −2.75%; Stability RE, processed samples' stability ([4]; high QC concentration): −12.23%; Stability RE, processed samples' stability ([4]; low QC concentration): −8.14%; Stability RE, processed samples' stability ([4]; medium QC concentration): −0.19%
3 | Cn1c(=O)n(CCC2(O)C(=O)Nc3ccccc32)c(=O)c2ccccc21 (stereo not drawn) [wuchuyuamide-I] | 11.5 ± 1.4 | 12.8 ± 1.43 | 3.45 ± 1.73 | 3.86 | 5.22 | 3.64 ± 1.5 | 1.5 | 48.2 ± 8.86 | 50.1 ± 8.81 | 10.7 ± 4.43 | 5.77 | 6.89 | 4.92 ± 1.83 | 0.5 | 20 | 2.55 ± 0.38 | 66.844 ± 7.076 | 0.519 ± 0.407 | 35.057 ± 11.851 | 0.544 ± 0.140 | AUC0→∞/D (ratio of AUC0→∞ and dose) ([3]; oral FZJ extract): 278.39; Cmax/D (ratio of Cmax and dose) ([3]; oral FZJ extract): 59.61; AUC0→∞/D (ratio of AUC0→∞ and dose) ([3]; oral ZJ extract): 172.57; Cmax/D (ratio of Cmax and dose) ([3]; oral ZJ extract): 46.62; Stability RE, 3 freeze-thaw cycles ([4]; high QC concentration): 0.37%; Stability RE, 30 days at −20 °C ([4]; high QC concentration): −1.38%; Stability RE, 3 freeze-thaw cycles ([4]; low QC concentration): 18.91%; Stability RE, 30 days at −20 °C ([4]; low QC concentration): 14.46%; Stability RE, 3 freeze-thaw cycles ([4]; medium QC concentration): −14.69%; Stability RE, 30 days at −20 °C ([4]; medium QC concentration): −10.79%; Stability RE, processed samples' stability ([4]; high QC concentration): −10.58%; Stability RE, processed samples' stability ([4]; low QC concentration): 15.1%; Stability RE, processed samples' stability ([4]; medium QC concentration): −14.07%
